Laboratory results from PMC6151407 (Molecules : A Journal of Synthetic Chemistry and Natural …, 2017).
In brackets after ≈: the same amount, converted by molar mass. Like-named read-outs stand apart in the source and are kept apart here.

What was measured:
BACE1 = BACE1 (Homo sapiens, UniProt P56817); assay: BACE1 FRET assay kit (β-secretase) inhibition; type: biochemical; conditions: isolated compounds; 60 min, room temperature, pH 4.5; mean ± S.D. (n = 3)
Procedure: (§1) n-Hexane (Hx), ethyl acetate (EA), n-butanol (BuOH), methanol (MeOH), ethanol (EtOH), and distilled water were used for extraction, fractionation, and open column chromatography. Open column chromatography used Sephadex LH-20 (25–100 μm; Pharmacia, Stockholm, Sweden), MCI CHP 20P (Supelco, St. Louis, MO, USA), and ODS gel (400–500 mesh; Waters, Milford, MA, USA). Dimethyl sulfoxide-d6 (DMSO-d6) and chloroform-d (CDCl3) were used for the NMR solution. MS was performed with ultra-high performance liquid chromatography and high-resolution mass spectrometry (UHPLC-HRMS) coupled with electrospray ionization hybrid linear trap-quadruple-Orbitrap MS (ESI/LTQ-Orbitrap) on an Ultimate 3000 rapid separation liquid chromatography (RSLC) system (Thermo, Darmstadt, Germany). ^1H- and ^13C-nuclear magnetic resonance (NMR) spectra were collected at 600 and 150 MHz, respectively, with a JEOL spectrometer. Chemical shifts are expressed as parts per million (ppm) on the δ scale, and coupling constants (J) are shown in Hertz. HPLC was conducted with Empower Pro 2.0 software (Waters, Milford, MA, USA), and determination was performed with a Waters 2695 system pump and Waters 996 Photodiode array detector (Waters, Milford, MA, USA). The separation column was a Waters Sunfire™ C18 column (4.6 × 250 mm, 5 μm). HPLC-grade solvents, such as acetonitrile (ACN), methanol (MeOH), and distilled water (H2O), were purchased from J. T. Baker® (Phillipsburg, PA, USA). HPLC-grade phosphoric acid and dimethyl sulfoxide (DMSO) were obtained from DEAJUNG Chemical (Siheung, Gyeonggi, Korea). Reagents and solvents including electric eel AChE (EC3.1.1.7), horse serum BChE (EC3.1.1.8), acetylthiocholine iodide (ACh), butyrylthiocholine chloride (BCh), 5,5′-dithiobis [2-nitrobenzoic acid] […] The BACE1 FRET assay kit (β-secretase) was purchased from PanVera Co. (Madison, WI, USA).
BACE1 inhibition was measured with a commercially available spectrophotometric method according to the manufacturer’s recommended protocol. The assay mixture contained 50 mM sodium acetate buffer (pH 4.5), 1.0 U/mL BACE1, substrate (750 nM Rh-[…]-Quencher in 50 mM ammonium bicarbonate), and sample. […] The reaction was incubated for 60 min at room temperature in the dark. BACE1 activity was determined by measuring the proteolysis of two fluorophores (Rh-[…]-Quencher) to form a fluorescent donor (Rh-EVNL) with an excitation of 545 nm and emission of 585 nm in a black 96-well plate. […] Inhibition was calculated with the following formula: (Ac − As/Ac) × 100, where Ac is the change in fluorescence for the control after 60 min, and As is the change in fluorescence for the sample after 60 min.

[1] = target: T1, electric eel AChE (EC3.1.1.7) (Electrophorus electricus, UniProt O42275); assay: biochemical
T1 construct: purchased Sigma-Aldrich Chemical Company (St. Louis, MO, USA)
Procedure: n-Hexane (Hx), ethyl acetate (EA), n-butanol (BuOH), methanol (MeOH), ethanol (EtOH), and distilled water were used for extraction, fractionation, and open column chromatography. Open column chromatography used Sephadex LH-20 (25–100 μm; Pharmacia, Stockholm, Sweden), MCI CHP 20P (Supelco, St. Louis, MO, USA), and ODS gel (400–500 mesh; Waters, Milford, MA, USA). Dimethyl sulfoxide-d6 (DMSO-d6) and chloroform-d (CDCl3) were used for the NMR solution. MS was performed with ultra-high performance liquid chromatography and high-resolution mass spectrometry (UHPLC-HRMS) coupled with electrospray ionization hybrid linear trap-quadruple-Orbitrap MS (ESI/LTQ-Orbitrap) on an Ultimate 3000 rapid separation liquid chromatography (RSLC) system (Thermo, Darmstadt, Germany). ^1H- and ^13C-nuclear magnetic resonance (NMR) spectra were collected at 600 and 150 MHz, respectively, with a JEOL spectrometer. Chemical shifts are expressed as parts per million (ppm) on the δ scale, and coupling constants (J) are shown in Hertz. HPLC was conducted with Empower Pro 2.0 software (Waters, Milford, MA, USA), and determination was performed with a Waters 2695 system pump and Waters 996 Photodiode array detector (Waters, Milford, MA, USA). The separation column was a Waters Sunfire™ C18 column (4.6 × 250 mm, 5 μm). HPLC-grade solvents, such as acetonitrile (ACN), methanol (MeOH), and distilled water (H2O), were purchased from J. T. Baker® (Phillipsburg, PA, USA). HPLC-grade phosphoric acid and dimethyl sulfoxide (DMSO) were obtained from DEAJUNG Chemical (Siheung, Gyeonggi, Korea). Reagents and solvents including electric eel AChE (EC3.1.1.7), horse serum BChE (EC3.1.1.8), acetylthiocholine iodide (ACh), butyrylthiocholine chloride (BCh), 5,5′-dithiobis [2-nitrobenzoic acid] (DTNB), berberine, bovine serum albumin, aminoguanidine (AG), glucose, and fructose were purchased from Sigma-Aldrich Chemical Company (St. Louis, MO, USA). The BACE1 FRET assay kit (β-secretase) was purchased from PanVera Co. (Madison, WI, USA).
(§2) ChE activity was detected by AChE- or BChE-mediated hydrolysis of […] for 15 min to form thiocholine and the yellow 5-thio-2-nitrobenzoate anion. The result was quantified by measuring the absorbance 412 nm. The assay mixture contained 0.1 M potassium phosphate buffer (pH 7.8), 0.3 U/mL AChE or BChE, 0.5 mM DTNB, 0.6 mM ACh or BCh, and the sample for a total volume of 0.2 mL. All tested samples were dissolved in 10% DMSO at five different final concentrations (10–500 µg/mL for extracts and fractions or 10–500 µM for isolated constituents). The reaction was performed in a 96-well plate. […] Inhibitory activity was calculated with the following formula: (Ac − As/Ac) × 100, where Ac is the change in absorbance for the control after 15 min and As is the change in absorbance for the sample after 15 min.

AGE formation = assay: Inhibition of AGE formation (bovine serum albumin with fructose and glucose, fluorescence); type: biochemical; conditions: 60 °C for 2 days, pH 7.4, mean ± S.D. (n = 3); for IC50: isolated compounds, read-out: IC50 AGEs Formation
Procedure: Inhibition of AGE formation was measured with a spectrophotometric method developed previously. All tested samples were dissolved in 10% DMSO at five different final concentrations (10–500 µg/mL for extracts and fractions or 10–500 µM for isolated constituents). The assay mixture contained bovine serum albumin (10 mg/mL), 50 mM phosphate buffer (pH 7.4) with 0.02% sodium azide, and 0.4 M fructose and glucose. The reaction was incubated at 60 °C for 2 days. After incubating, fluorescence was measured at an excitation wavelength of 350 nm and emission of 450 nm in a black 96-well plate. Aminoguanidine (AG), a typical inhibitor of AGE formation, was used as a positive control. The inhibitory activity was calculated with the following formula: (Ac − As/Ac) × 100, where Ac is the fluorescence of the control, and As is the fluorescence of the sample.

[2] = target: T2, horse serum BChE (EC3.1.1.8) (Equus caballus, UniProt P81908); assay: biochemical
T2 construct: horse serum BChE (EC3.1.1.8); purchased Sigma-Aldrich Chemical Company (St. Louis, MO, USA); host or cells: horse serum
Procedure: as §1, §2

[3] = isolated compounds, 15 min, pH 7.8, mean ± S.D. (n = 3), read-out: IC50 AChE (converted)
[4] = isolated compounds, 15 min, pH 7.8, mean ± S.D. (n = 3), read-out: IC50 BChE

Chain of BACE1 (P56817 46-501): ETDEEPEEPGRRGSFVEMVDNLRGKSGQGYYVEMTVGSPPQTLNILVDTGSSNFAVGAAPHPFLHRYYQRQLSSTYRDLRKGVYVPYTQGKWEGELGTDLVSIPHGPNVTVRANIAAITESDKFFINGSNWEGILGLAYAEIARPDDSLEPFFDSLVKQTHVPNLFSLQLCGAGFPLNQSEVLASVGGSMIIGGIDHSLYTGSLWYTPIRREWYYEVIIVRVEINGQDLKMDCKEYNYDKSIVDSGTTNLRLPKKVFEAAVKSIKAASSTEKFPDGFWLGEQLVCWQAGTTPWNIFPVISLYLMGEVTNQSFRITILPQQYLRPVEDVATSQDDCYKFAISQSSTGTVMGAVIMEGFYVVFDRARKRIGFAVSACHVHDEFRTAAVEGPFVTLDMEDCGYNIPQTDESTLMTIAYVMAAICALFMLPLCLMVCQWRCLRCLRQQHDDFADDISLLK
T2 sequence (P81908 whole entry): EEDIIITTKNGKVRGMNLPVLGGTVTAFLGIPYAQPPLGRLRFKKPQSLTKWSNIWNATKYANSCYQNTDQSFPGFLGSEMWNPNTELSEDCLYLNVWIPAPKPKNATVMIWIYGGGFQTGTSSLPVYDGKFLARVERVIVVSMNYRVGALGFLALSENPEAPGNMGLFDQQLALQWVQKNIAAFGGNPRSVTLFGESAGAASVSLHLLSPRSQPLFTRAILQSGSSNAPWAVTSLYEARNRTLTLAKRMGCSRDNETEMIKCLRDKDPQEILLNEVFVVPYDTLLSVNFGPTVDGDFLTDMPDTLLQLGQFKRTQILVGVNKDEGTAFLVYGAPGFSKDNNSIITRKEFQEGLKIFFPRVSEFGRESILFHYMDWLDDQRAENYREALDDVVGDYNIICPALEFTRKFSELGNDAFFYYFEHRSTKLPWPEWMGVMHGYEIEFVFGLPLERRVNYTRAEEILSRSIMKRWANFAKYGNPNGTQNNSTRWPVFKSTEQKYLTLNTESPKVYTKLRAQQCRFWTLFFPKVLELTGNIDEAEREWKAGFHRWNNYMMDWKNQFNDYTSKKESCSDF
T1 sequence (O42275 24-633): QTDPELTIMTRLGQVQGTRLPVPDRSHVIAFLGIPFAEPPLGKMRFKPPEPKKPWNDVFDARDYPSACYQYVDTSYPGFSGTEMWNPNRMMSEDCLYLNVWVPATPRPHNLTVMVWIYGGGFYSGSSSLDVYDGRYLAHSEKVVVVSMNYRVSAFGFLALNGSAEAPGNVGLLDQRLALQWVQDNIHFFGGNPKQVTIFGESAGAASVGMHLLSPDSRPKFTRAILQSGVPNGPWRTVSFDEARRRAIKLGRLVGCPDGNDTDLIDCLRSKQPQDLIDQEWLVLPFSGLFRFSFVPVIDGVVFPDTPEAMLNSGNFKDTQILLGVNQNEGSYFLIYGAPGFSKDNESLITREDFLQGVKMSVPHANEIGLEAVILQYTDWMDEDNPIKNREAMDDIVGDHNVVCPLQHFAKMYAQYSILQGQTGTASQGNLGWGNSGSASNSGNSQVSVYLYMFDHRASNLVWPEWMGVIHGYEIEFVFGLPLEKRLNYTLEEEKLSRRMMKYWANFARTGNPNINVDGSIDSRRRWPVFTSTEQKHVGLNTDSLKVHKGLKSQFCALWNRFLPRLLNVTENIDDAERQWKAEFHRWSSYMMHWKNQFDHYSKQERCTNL

SMILES	IC50 (BACE1) [µM]	IC50 [1, 3] [µM]	IC50 (AGE formation) [µM]	IC50 [2, 4] [µM]	IC50 ([1]; IC50 AChE) [µM]	IC50 ([2]; IC50 BChE) [µM]	IC50 AGE Formation (AGE formation; extracts and fractions) [µg/mL]	IC50 ([1]; extracts and fractions, 15 min, pH 7.8, mean ± S.D. (n = 3), read-out: IC50 AChE (converted)) [µM]
COc1cc2ccc(=O)oc2cc1O [Compound 9, scopoletin]	> 200	236 ± 21.2	5.43 ± 0.11	50.4 ± 1.61				
COc1c(O)ccc2c1C(=O)c1ccccc1C2=O [Compound 1, alizarin-1-methyl ether]	192 ± 7.32	175 ± 10.7	292.4 ± 2.28	450 ± 8.82				
O=C1c2ccccc2C(=O)c2cc(CO)c(O)cc21 [Compound 5, 2-hydroxymethyl-3-hydroxy anthraquinone]	> 200	19.1 ± 3.58	355 ± 12	459 ± 13.1				
CC[C@H](CC[C@@H](C)[C@H]1CC[C@H]2[C@@H]3CC=C4C[C@@H](O)CC[C@]4(C)[C@H]3CC[C@]12C)C(C)C [Compound 10, β-sitosterol]					> 500	> 500		
N=C(N)NN [AG, aminoguanidine, reference compound]			762 ± 69.1				104.87 ± 6.94 (≈ 1420 µM)	
COc1c(C)c(O)cc2c1C(=O)c1ccccc1C2=O [Compound 6, rubiadin-1-methyl ether]	25.9 ± 2.11	87.2 ± 6.56	> 1000	> 500				
O=C1c2ccccc2C(=O)c2c(O)cc(CO)cc21 [Compound 7, 1-hydroxy-3-hydroxymethyl anthraquinone]		96.4 ± 17.2		> 500				
COc1cc2c(cc1CO)C(=O)c1ccccc1C2=O [Compound 4, 2-hydroxymethyl-3-methoxy anthraquinone]	> 200	27 ± 1.49	530 ± 15.5	> 500				
COc1ccc2c(c1)C(=O)c1ccccc1C2=O [Compound 3, 2-methoxy anthraquinone]	9.29 ± 1.92	187 ± 20.1	88.4 ± 3.28	230 ± 5.97				
Cc1c(O)cc2c(c1O)C(=O)c1ccccc1C2=O [Compound 8, rubiadin]	19.8 ± 3.05	44.3 ± 12.2	522 ± 10.1	> 500				
COc1c(O)cc2c(c1OC)C(=O)c1ccccc1C2=O [Compound 2, 1,2-dimethoxy-3-hydroxy anthraquinone]	115 ± 21.6	147 ± 13.3	438 ± 23.9	442 ± 10.6				
COc1ccc2cc3[n+](cc2c1OC)CCc1cc2c(cc1-3)OCO2 [Berberine, berberine, reference compound]		0.42 ± 0.03						0.416
